Reference: patent US8557380B2, “Form of hydroquinone and production thereof” (Rhodia Operations, priority 2006, dated 2013)
Where two headings read alike, the source gives them in different places.

Legend:
[1] = undried product
Method: The densities are measured on an undried product according to the test described in the European Phatmacopeia standard [Volume 1, p. 256 (2004), 5th edition], with the only difference that the 250 ml of test specimen is replaced by a 1 liter test specimen.

[2] = final concentration 2% by weight
Method: A similar test is carried out in order to determine the rate of dissolution of the flakes in acrylic acid.
The test consists in defining the time necessary to dissolve the amount of flakes necessary in order to obtain a final concentration of hydroquinone in the acrylic acid of 2% by weight.

[3] = particles with dimensions of less than 100 μm
Excerpt: The level of the fine particles is defined as the percentage by weight of the particles with dimensions of less than 100 μm.
Particles which pass through a sieve having a mesh size of 100 μm are regarded according to the invention as fine particles.

[4] = stirred, final concentration 4.8% by weight
Method: These measurements correspond to a test which consists in measuring the time necessary to dissolve said amount in water maintained at ambient temperature (20° C.) and kept stirred, for example using a propeller stirrer with 4 inclined blades.

[5] = sieve mesh size 2.5 mm
Excerpt: In order to define the particle size of the product of the invention, the percentage by weight of the particles with dimensions of less than 2.5 mm, that is to say particles which pass through a sieve having a mesh size of 2.5 mm, is also defined.

Compound | Loose bulk density [1] | Tapped bulk density [1] | Dissolution time in acrylic acid at 20° C. (production of a 2.0% by weight solution) [2] | % by weight of particles passing through a sieve with a mesh size of 100 μm (level of fine particles) [3] | Dissolution time in water at 20° C. (production of a 4.8% by weight solution) [4] | percentage by weight of the particles with dimensions of less than 2.5 mm [5] | % by weight of particles passing through a sieve with a mesh size of 100 μm (level of fine particles) ([3]; listed as hydroquinone in the powder form)
Oc1ccc(O)cc1 [Example 4, hydroquinone] | 0.46 g/mL | 0.61 g/mL | 30 min | 0.8% by weight | 14 min |  | 
Oc1ccc(O)cc1 [Example 2, hydroquinone] | 0.47 g/mL | 0.65 g/mL | 30 min | 0.7% by weight | 15 min |  | 
Oc1ccc(O)cc1 [hydroquinone powder, hydroquinone] |  |  | 20 min |  | 9 min | 100 % by weight | ~20 % by weight
Oc1ccc(O)cc1 [Example 1, hydroquinone] | 0.52 g/mL | 0.70 g/mL | 45 min | 0.8% by weight | 21 min |  | 
Oc1ccc(O)cc1 [Example 3, hydroquinone] | 0.48 g/mL | 0.67 g/mL | 35 min | 0.9% by weight | 18 min |  | 
Oc1ccc(O)cc1 [Example 5, hydroquinone] | 0.53 g/mL | 0.66 g/mL | 30 min | 0.9% by weight | 14 min |  | 
